Results published in patent US6025365A, “Chelerythrine and radiation combined tumor therapy” (Arch Development Corp., priority 1997, dated 2000).

Experiments:
WEHI-231 JM cells = test: Viability by PI staining and FACS, WEHI-231 JM; format: cell-based, murine; conditions: 24 hours
Method: (§1) FIG. 11B. WEHI-231 JM and OE cells are equally sensitive to inhibition of sphingosine kinase and exogenous ceramide. Cells were treated with increasing concentrations of C2-ceramide or DL-threo-dihydrosphingosine--apotent inhibitor of sphingosine kinase. Viability was assayed using PI staining and FACS analysis 24 hours after treatment.
(§2) For viability staining, 2.5-3.5×10^5 cells were treated with varying concentrations of C2-ceramide, irradiation, or both.
(§3) In order to address the question of whether the resistance of the OE subline was due, in part, to alterations in ceramide metabolites or targets, three studies were performed. […] Both cell lines were equally susceptible to the effects of sphingosine kinase inhibition and the resulting […] in ceramide. […] Thus the radioresistance can be attributed to the lack of sphingomyelinase activation and the subsequent decreased ceramide production following irradiation.

SQ20-B cells [1] = test: Clonogenic survival / colony formation assay; format: cell-based, human; conditions: 20 μM C2-ceramide 30 minutes prior to x-ray
Method: FIG. 2. Chelerythrine chloride enhanced IR-mediated cell killing through divisional death. Clonogenic survival was measured following exposure to increasing concentrations of chelerythrine and ionizing radiation. Cells were plated at cell numbers between about 500 cells/plate and about 2000 cells/plate and treated with 0 μM, 0.5 μM, or 1.0 μM chelerythrine chloride for 30 minutes prior to irradiation. After 2 weeks the colonies were scored for survival if they were composed of more than 50 cells. Results represent the mean of three individual experiments with duplicate or triplicate determinants. Error bars represent +/- the standard error of the means (SEM).
FIG. 5C. […] Closed circles represent radiation alone; closed squares represenet addition of 20 μM C2-Ceramide 30 minutes prior to x-ray.
Exponentially growing SQ20B cultures were trypsinized using 0.05% trypsin+0.02% EDTA. Cells (100 to 50,000) were plated in 100 mm tissue culture dishes. Chelerythrine or C2-ceramide was added 4 hours after plating and irradiated for 30 minutes after the addition of chelerythrine or C2-ceramide. The cells were irradiated using a GE Maxitron 250 x-ray generator operating at 250 kV and 26 mA with a dose rate of 114 cGy/min. After 12 days the cells were fixed and stained with crystal violet following standard procedures (Chmura et al., 1996a; 1996b). Colonies of >50 cells were scored as survivors.
Clonogenic survival was measured following increasing concentrations of chelerythrine chloride alone (0.5-1.5 μM), IR alone (1-9 Gy), or the combined treatment of cells with chelerythrine and IR. […] At a concentration of 500 nM, chelerythrine decreased cell survival to about 80% of untreated control cells (about 20% cell death). The combined treatment of cells with 500 nM of chelerythrine 30 minutes prior to treatment with 3 Gy of radiation decreased cell survival to about 30% of untreated cells (about 70% cell death). […] Cell shrinkage and nuclear condensation, characteristic of apoptosis, were not observed at these concentrations of chelerythrine and IR.

WEHI-231 cells = test: Reactive oxygen species by dichlorodihydrofluorescein and FACS; format: cell-based, murine; conditions: 30 μM ceramide or 10 μM chelerythrine, 15 minutes; anti-IgM 2 hours
Method: FIGS. 8A-8C. Exogenous ceramide and PKC inhibition induce oxidative changes in WEHI-231 cells. WEHI-231 cells (1×10^6) were treated with anti-IgM antibodies for 2 hours (FIG. 8A), 30 μM exogenous ceramide for 15 minutes (FIG. 8B) or 10 μM chelerythrine for 15 minutes (FIG. 8C). The reactive oxygen species in the cells was then measured using dichlorodihydrofluorescein (DCHF-DA) and quantitated using FACS analysis. Histogram analysis of fluorescence is plotted as LOG function.
The mechanisms by which ceramide may mediate cell death is yet unknown. […] Since changes in oxidative status induced a wide range of cellular responses including growth and apoptosis in WEHI-231 and other lymphocytes, the inhibition of PKC and a resulting accumulation of ceramide were studied for their affect on the level of reactive oxygen species within the cell using the dye dichlorodihydrofluorescein and FACS analysis. […] While non-toxic oxidation may promote cell growth, intracellular reduction may lead to the activation of cysteine proteases which are proposed mediators of apoptosis.

WEHI-231 OE cells [2] = test: Viability by PI staining and FACS, WEHI-231 OE; format: cell-based, murine; conditions: 24 hours
Method: as §1, §2, §3

WEHI-231 OE cells [3] = test: Radiation mediated apoptosis of WEHI-231 OE cells after C2-ceramide pre-treatment; format: cell-based, murine; conditions: C2-ceramide 30 minutes prior to 8 Gy, 24 hours
Method: FIG. 11A-1, FIG. 11A-2, and FIG. 11A-3. Exogenous ceramide can sensitize WEHI-231 OE cells to radiation mediated apoptosis. C2-ceramide (Cer) was added to 3×10^5 WEHI-231 OE cells 30 minutes prior to treatment with 8 Gy. Apoptosis was quantitated using propidium iodide staining and FACS analysis. Percent apoptotic cells are shown in gate R2 twenty-four hours following irradiation.
as §2, §3

[4] = system: bcl-x WEHI-231, MG and WEHI-231 OE (JM) cells; test: Effect of protease inhibitors on chelerythrine induced apoptosis in apoptosis-resistant cell lines; format: cell-based; conditions: ZVAD 20 μM, even at doses >15 μM chelerythrine
Method: Using the procedures already described (Chmura, 1996; Chmura et al., 1996a; Chmura et al., 1996b), three different apoptosis-resistant cell lines were examined for their susceptibility to apoptosis induced by chelerythrine. The three cell lines used were bcl-x WEHI-231, which represents WEHI-231 cells that have been transfected with bcl-x and are highly resistant to radiation induce apoptosis, MG cells and the WEHI-231 OE (JM) cells previously described.
All three cell lines were treated with chelerythrine and x-irradiation as previously described (Chmura et al., 1996a; Chmura et al., 1996b) with the following modifications. Cells were pre-exposed to YVAD-cmk (100 μM), a protease inhibitor of the interleukin 1-b converting enzyme (ICE) subfamily or to ZVAD (20 μM), which inhibits the cpp32β family of proteases, for 30 minutes before being subjected to chelerythrine.

SQ20-B cells [5] = test: Apoptosis in SQ20-B (propidium iodide FACS, DAPI staining, DNA laddering); format: cell-based, human
Method: FIGS. 3A-3E. […] M1 defines the % of apoptotic cells as defined by (a) propidium iodide uptake of 1 log or more fluorescence and (b) a decrease in cell size of 50% or more. FL3-Height indicated the uptake of propidium by the cell. In FIG. 3A, M1=5%; FIG. 3B, M1=22%; FIG. 3C, M1=73%; FIG. 3D, M1=16%; FIG. 3E, M1=24%.
Cells undergoing apoptosis also shrink in size.
Cells, 5×10^5, were centrifuged at 1000 rpm and resuspended in approximately 100 μl cell culture media. The cell suspension was then mixed with 100 μl of DAPI (4',6-iamidino-2-phenylindole, Sigma D9542, 1 μg/ml in PBT (PBS+1% Triton X-100)). One drop of this mixture was placed on a microslide with a coverslip. The cells were viewed by fluorescence microscopy using an Olympus BX-40 microscope with a 100 Watt Mercury lamp, a 16 or 40 X Fluorite objective, N.A. 0.75, (Leco #1-UB527) and a UV filter cube (ex 330-385 nm, em 420 nm, wide band pass, Leco #U-M536). Images were photographed using an Optronics cooled low-light video camera (Leco #DEI-470TB) to which was attached a 2X coupler (Leco #HR200-CMT). The image was saved to a digital file at 72 dpi.
DNA degradation was assessed as previously described (Gottschalk et al., 1993; 1994). Briefly, following treatment in 100 mm plates or 24 well plates, cells were collected and lysed in 0.5 ml lysis buffer (0.6% SDS+10 mM EDTA, pH 7.0). […]

| Molecule | IC50 (WEHI-231 JM cells) | clonogenic survival of irradiated cultures (words) (SQ20-B cells [1]; listed as C2-Ceramide) | clonogenic survival of irradiated cultures (words) (SQ20-B cells [1]; listed as ceramide) | reactive oxygen species (ROS) (WEHI-231 cells) | IC50 (WEHI-231 OE cells [2]) | apoptotic response of irradiated cells (WEHI-231 OE cells [3]) | inhibition of chelerythrine induced apoptosis [4] | apoptosis following combined IR and chelerythrine (2.5 μM), inhibition (SQ20-B cells [5]; zVAD-fmk 20 μM) | chelerythrine induced apoptosis, inhibition (SQ20-B cells [5]; zVAD-fmk with chelerythrine) |
| --- | --- | --- | --- | --- | --- | --- | --- | --- | --- |
| CCCCCCCCCCCCC/C=C/[C@@H](O)[C@H](CO)NC(C)=O [C2-ceramide] | 3000 nM | decreased clonogenic survival | enhanced IR induced cell killing | reduced the ROS in the cells | 3000 nM | restored the apoptotic response at 24 hours | – | – | – |
| zVAD-fmk | – | – | – | – | – | – | did block chelerythrine induced apoptosis | inhibited apoptosis | blocked chelerythrine induced apoptosis |
